According to US4609664A, “Antiasthmatic piperidylidene derivatives” (Sandoz Ltd., priority 1980, dated 1986):
Read-outs that look alike come from different tables or passages of the source.

Tested on: cutaneous anaphylactic reaction
Experiment: passive cutaneous anaphylaxis (PCA) test in the rat
Format: in vivo
Details: dose decreasing diameter of blue area by 50% vs solvent controls, female rats
Description: This activity is indicated in the passive cutaneous anaphylaxis (PCA) test in the rat.
The method employed in this test is based on those described by Mota, Immunology 7, 681 (1964) and Stofland and Share, J. Physiol. Pharmacol. 52, 1114 (1974). Female rats (180-200 g) are sensitized by subcutaneous administration of 1 mg of ovalbumin and 200 mg aluminium hydroxide, dissolved in 1 ml of physiological saline solution and intraperitoneal administration of 0.5 ml of Haemophilus pertussis vaccine (SchweizerischesSerum- und Impfinstitut, Bern, Switzerland; 4×10^10 organism/ml). Fourteen day later, the animals are decapited, the blood centrifuged and the serum (anti-ovalbumin serum) collected and deep frozen.
The diluted anti-ovalbumin serum is injected intradermally (0.1 ml per injection site) at […] on the backs of untreated, female rats. Twenty-four hours after the passive sensitisation, the rats receive either solvent or the test compound i.v. in a tail-vein or per os. Immediately afterwards or, in the case of p.o. administration, 60 minutes later, the animals receive an intravenous injection of 1 ml of antigen. The antigen (5 mg/ml) is dissolved in a 0.25% solution of Evans blue dye in physiological saline. In the controls this injection elicits a cutaneous anaphylactic reaction, the intensity of which is proportional to the distance to which the dye diffuses into the tissue surrounding the four sensitisation sites. Thirty minutes later, the rats are killed in CO2 and the diameter in mm of the blue spot at each injection site measured. The drug dose decreasing the diameter of the blue area by 50% compared with solvent pretreated control rats (ED50), is obtained from the regression line. The dose-effect correlation is tested for statistical significance.
In the above test, compounds of the formula I are found to be active on administration at dosages of from about 0.1 to about 3.2 mg/kg p.o. and from about 0.056 to about 1.00 mg/kg i.v. ED50 values for the representative compounds 4-{1-[2-[2-(2-hydroxy-ethoxy)ethoxy]ethyl]piperidin-4-yliden}-4H-benzo[4,5]cyclohepta[1,2-b]thiophen-10(9H)-one. HBr (Compound A) and 2-{2-[2-[4-(5H-dibenzo[a,d]cyclohept-5-yliden)piperidin-1-yl]ethoxy]ethoxy}ethanol hydrogenofumarate (Compound B) as well as for the reference compound 5,5'-[(2-hydroxy-1,3-propanediyl)bis-(oxy)]bis[4-oxo-4H-1-benzopyran-2-carboxylic acid]

[1] = iv, i.v. in a tail-vein, immediately before antigen, read-out: ED50 (i.v.)
[2] = po, 60 minutes before antigen, read-out: ED50 (p.o)

| Compound | ED50 [1] | ED50 [2] |
| --- | --- | --- |
| O=C1Cc2ccccc2C(=C2CCN(CCOCCOCCO)CC2)c2ccsc21 [Compound A, 4-{1-[2-[2-(2-hydroxy-ethoxy)ethoxy]ethyl]piperidin-4-yliden}-4H-benzo[4,5]cyclohepta[1,2-b]thiophen-10(9H)-one. HBr] | ~0.21 mg/kg | ~1.8 mg/kg |
| OCCOCCOCCN1CCC(=C2c3ccccc3C=Cc3ccccc32)CC1 [Compound B, 2-{2-[2-[4-(5H-dibenzo[a,d]cyclohept-5-yliden)piperidin-1-yl]ethoxy]ethoxy}ethanol hydrogenofumarate] | ~0.22 mg/kg | ~0.49 mg/kg |
| O=C(O)c1cc(=O)c2c(OCC(O)COc3cccc4oc(C(=O)O)cc(=O)c34)cccc2o1 [Compound C, 5,5'-[(2-hydroxy-1,3-propanediyl)bis-(oxy)]bis[4-oxo-4H-1-benzopyran-2-carboxylic acid], reference compound] | ~2.6 mg/kg | – |
